Results taken from ChEMBL document CHEMBL4184098, “Discovery of novel benzo[b]thiophene tetrazoles as non-carboxylate GPR40 agonists” (Bioorg Med Chem Lett, 2018).

How the values were obtained:
[1] = Cmax in rat at 10 mg/kg, po; format: ADME, organism-based; parameters: dose 10 mg/kg, route oral; conditions: in vivo
[2] = Volume of distribution at steady state in rat at 10 mg/kg, po or 2 mg/kg, iv; format: ADME, organism-based; conditions: in vivo, read-out: Vdss
[3] = Oral bioavailability in rat at 10 mg/kg; format: ADME, organism-based; conditions: in vivo
[4] = Retention time of compound by LC-MS/MS analysis; format: physicochemical
[5] = Plasma concentration in Sprague-Dawley rat at 1 mg/kg, po administered 40 mins prior to glucose-challenge measured at 160 mins post last dose during OGTT assay; format: ADME, organism-based
[6] = Plasma concentration in Sprague-Dawley rat at 10 mg/kg, po administered 40 mins prior to glucose-challenge measured at 160 mins post last dose during OGTT assay; format: ADME, organism-based
[7] = Plasma concentration in Sprague-Dawley rat at 10 mg/kg, po administered 40 mins prior to glucose-challenge measured at 35 mins post last dose during OGTT assay; format: ADME, organism-based
[8] = Plasma concentration in Sprague-Dawley rat at 10 mg/kg, po administered 40 mins prior to glucose-challenge measured at 95 mins post last dose during OGTT assay; format: ADME, organism-based
[9] = Plasma concentration in Sprague-Dawley rat at 10 mg/kg, po administered 40 mins prior to glucose-challenge measured at 155 mins post last dose during OGTT assay; format: ADME, organism-based

SMILES	Cmax [1]	Vd [2]	bioavailability [3]	Retention_time [4]	concentration at 160 min [5]	concentration at 160 min [6]	concentration at 35 min [7]	concentration at 95 min [8]	concentration at 155 min [9]
CC#C[C@@H](Cc1nnn[nH]1)c1ccc(OCc2ccc3scc(-c4ccc(OCCCS(C)(=O)=O)cc4C)c3c2)cc1	417 ng/mL	5.1 L/kg	56.8%						
CC#C[C@@H](Cc1nnn[nH]1)c1ccc(OCc2ccc3scc(-c4ccccc4C)c3c2)cc1	576 ng/mL	1.5 L/kg	43.2%	26.64 min	0.32 µM	1.85 µM			
CC#C[C@@H](Cc1nnn[nH]1)c1ccc(OCc2ccc3scc(-c4ccc(OCC5(C)CS(=O)(=O)C5)cc4C)c3c2)cc1	356 ng/mL	5.9 L/kg	50.3%						
CC#C[C@@H](Cc1nnn[nH]1)c1ccc(OCc2ccc3sc(C(F)(F)F)c(-c4ccccc4C)c3c2)cc1	2520 ng/mL	1.1 L/kg	82.1%			7.42 µM			

Now from value to compound:

Cmax [1]	Vd [2]	bioavailability [3]	Retention_time [4]	concentration at 160 min [5]	concentration at 160 min [6]	concentration at 35 min [7]	concentration at 95 min [8]	concentration at 155 min [9]	SMILES
						5.66 µM	3.9 µM	4.41 µM	CC#C[C@@H](Cc1nnn[nH]1)c1ccc(OCc2ccc3sc(C(F)(F)F)c(-c4ccc(OCCOC)cc4C)c3c2)cc1
1590 ng/mL	2.2 L/kg	62.3%			3.74 µM				CC#C[C@@H](Cc1nnn[nH]1)c1ccc(OCc2ccc3sc(F)c(-c4ccccc4C)c3c2)cc1
4220 ng/mL	0.8 L/kg	72%			8.09 µM				CC#C[C@@H](Cc1nnn[nH]1)c1ccc(OCc2ccc3sc(Cl)c(-c4ccccc4C)c3c2)cc1
